What all share (test): Bacterial growth minimal inhibitory concentration (broth microdilution, CLSI M7-A7)
Common to all, as to format: cell-based

Test [1] relates to Acinetobacter baumannii T6474. The conditions noted are these: Acinetobacter baumannii, T6474, cation-adjusted Mueller-Hinton Broth, multiply-resistant strain (in particular quinolone-resistant). Summed up:
(§1)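 Broth microdilution after CLSI M7-A7 in cation-adjusted Mueller-Hinton medium gave MIC values in mg/L.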

The subject of test [2] is Staphylococcus aureus A798. The conditions noted are these: Staphylococcus aureus, A798, cation-adjusted Mueller-Hinton Broth, multiply-resistant strain (in particular quinolone-resistant), read-out: MIC for S. aureus A798. Summed up:
as §1

Test [3] concerns Staphylococcus aureus ATCC29213. The conditions noted are these: Staphylococcus aureus, ATCC29213, cation-adjusted Mueller-Hinton Broth, methicillin-sensitive and quinolone-sensitive strain, read-out: MIC for S. aureus ATCC29213. Summed up: as §1
The subject of test [4] is Moraxella catarrhalis A894. To be noted: Moraxella catarrhalis, A894, cation-adjusted Mueller-Hinton Broth, quinolone-sensitive strain. Summed up:
as §1

Test [5] has as its system Enterococcus faecium A949. To be noted: Enterococcus faecium, A949, cation-adjusted Mueller-Hinton Broth, multiply-resistant strain (in particular quinolone-resistant), read-out: MIC for E. faecium A949. Summed up:
as §1

Values after ≈ are worked out from the molar mass of the structure shown. A value given as a limit tells only on which side of the number the result lay.

`COc1cccc(-c2cccc(CNCC[C@@H]3CN(c4ccc5c(c4)NC(=O)CS5)C(=O)O3)c2)c1` [Example 1, 6-((R)-5-{2-[(3′-methoxy-biphenyl-3-ylmethyl)-amino]-ethyl}-2-oxo-oxazolidin-3-yl)-4H-benzo[1,4]thiazin-3-one]: the MIC turned out to be 0.5 µg/mL (≈ 1.02 µM) in test [1]; 0.25 µg/mL (≈ 0.511 µM) in test [2]; 0.25 µg/mL (≈ 0.511 µM) in test [3]; 0.031 µg/mL (≈ 0.0633 µM) in test [4]; 2 µg/mL (≈ 4.08 µM) in test [5].
`COc1cccc(-c2cccc(CNCC[C@@H]3CN(c4ccc5c(c4)NC(=O)CS5)C(=O)O3)n2)c1` [Example 20, 6-[(R)-5-(2-{[6-(3-methoxy-phenyl)-pyridin-2-ylmethyl]-amino}-ethyl)-2-oxo-oxazolidin-3-yl]-4H-benzo[1,4]thiazin-3-one]: the MIC in test [1] was found to be 0.5 µg/mL (≈ 1.02 µM); in test [2], 0.25 µg/mL (≈ 0.51 µM); in test [3], 0.125 µg/mL (≈ 0.255 µM); in test [4], 0.063 µg/mL (≈ 0.128 µM); in test [5], 1 µg/mL (≈ 2.04 µM).
As to `COc1nc(OC)nc(-c2cccc(CNCC[C@@H]3CN(c4ccc5c(c4)NC(=O)CS5)C(=O)O3)c2)n1` [Example 28, 6-((R)-5-{2-[3-(4,6-dimethoxy-[1,3,5]triazin-2-yl)-benzylamino]-ethyl}-2-oxo-oxazolidin-3-yl)-4H-benzo[1,4]thiazin-3-one], the minimal inhibitory concentration (MIC) in test [1] was 1 µg/mL (≈ 1.91 µM); in test [2], 0.25 µg/mL (≈ 0.478 µM); in test [3] it was 0.25 µg/mL (≈ 0.478 µM); in test [4], 0.063 µg/mL (≈ 0.121 µM); in test [5], 4 µg/mL (≈ 7.65 µM).
For `COc1cnnc(-c2cccc(CNCC[C@H]3CN(c4ccc5c(n4)NC(=O)CO5)C(=O)O3)c2)c1` [Example 44, 6-((S)-5-{2-[3-(5-methoxy-pyridazin-3-yl)-benzylamino]-ethyl}-2-oxo-oxazolidin-3-yl)-4H-pyrido[3,2-b][1,4]oxazin-3-one], the MIC in test [1] is 0.25 µg/mL (≈ 0.525 µM); in test [2], 0.125 µg/mL (≈ 0.262 µM); in test [3] it was 0.25 µg/mL (≈ 0.525 µM); in test [4] it was ≤ 0.016 µg/mL; in test [5], 8 µg/mL (≈ 16.8 µM).
With `COc1cccc(-c2cccc(CNCCc3cn(-c4ccc5c(n4)NC(=O)CO5)c(=O)o3)c2)n1` [Example 35, 6-(5-{2-[3-(6-methoxy-pyridin-2-yl)-benzylamino]-ethyl}-2-oxo-oxazol-3-yl)-4H-pyrido[3,2-b][1,4]oxazin-3-one], the MIC in test [1] was 0.125 µg/mL (≈ 0.264 µM); in test [2], 0.063 µg/mL (≈ 0.133 µM); in test [3] it was 0.063 µg/mL (≈ 0.133 µM); in test [4], ≤ 0.016 µg/mL; in test [5], 1 µg/mL (≈ 2.11 µM).
Regarding `N#Cc1cccc(-c2cccc(CNCC[C@@H]3CN(c4ccc5c(c4)NC(=O)CS5)C(=O)O3)c2)c1` [Example 5, 3′-({2-[(R)-2-oxo-3-(3-oxo-3,4-dihydro-2H-benzo[1,4]thiazin-6-yl)-oxazolidin-5-yl]-ethylamino}-methyl)-biphenyl-3-carbonitrile], the MIC was 0.125 µg/mL (≈ 0.258 µM) in test [1]; 0.063 µg/mL (≈ 0.13 µM) in test [2]; 0.063 µg/mL (≈ 0.13 µM) in test [3]; ≤ 0.016 µg/mL in test [4]; 1 µg/mL (≈ 2.06 µM) in test [5].
For the compound `COc1cccc(-c2cccc(CNCC[C@@H]3CN(c4ccc5c(c4)NC(=O)CS5)C(=O)O3)n2)n1` [Example 22, 6-((R)-5-{2-[(6′-methoxy-[2,2]bipyridinyl-6-ylmethyl)-amino]-ethyl}-2-oxo-oxazolidin-3-yl)-4H-benzo[1,4]thiazin-3-one], the MIC in test [1] was 1 µg/mL (≈ 2.03 µM); in test [2], 0.5 µg/mL (≈ 1.02 µM); in test [3], 0.25 µg/mL (≈ 0.509 µM); in test [4], 0.063 µg/mL (≈ 0.128 µM); in test [5], 2 µg/mL (≈ 4.07 µM).
With `N#Cc1cccc(-c2cc(CNCCc3cn(-c4ccc5c(n4)NC(=O)CO5)c(=O)o3)ccn2)c1` [Example 49, 3-[4-({2-[2-oxo-3-(3-oxo-3,4-dihydro-2H-pyrido[3,2-b][1,4]oxazin-6-yl)-2,3-dihydro-oxazol-5-yl]-ethylamino}-methyl)-pyridin-2-yl]-benzonitrile], the MIC in test [1] came out at 0.5 µg/mL (≈ 1.07 µM); in test [2], 2 µg/mL (≈ 4.27 µM); in test [3], 1 µg/mL (≈ 2.13 µM); in test [4] it was 0.031 µg/mL (≈ 0.0662 µM); in test [5], 8 µg/mL (≈ 17.1 µM).
In the same order, the values of `N#Cc1ccc(-c2cccc(CNCC[C@H]3CN(c4ccc5c(n4)NC(=O)CO5)C(=O)O3)c2)cc1` [Example 66, 3′-({2-[(S)-2-oxo-3-(3-oxo-3,4-dihydro-2H-pyrido[3,2-b][1,4]oxazin-6-yl)-oxazolidin-5-yl]-ethylamino}-methyl)-biphenyl-4-carbonitrile] are 2 µg/mL (≈ 4.26 µM), 2 µg/mL (≈ 4.26 µM), 1 µg/mL (≈ 2.13 µM), ≤ 0.063 µg/mL and 16 µg/mL (≈ 34.1 µM).
For `COc1ccc(-c2cccc(CNCC[C@@H]3CN(c4ccc5c(c4)NC(=O)CS5)C(=O)O3)c2)cc1` [Example 6, 6-((R)-5-{2-[(4′-methoxy-biphenyl-3-ylmethyl)-amino]-ethyl}-2-oxo-oxazolidin-3-yl)-4H-benzo[1,4]thiazin-3-one] the same measures were 4 µg/mL (≈ 8.17 µM), 1 µg/mL (≈ 2.04 µM), 1 µg/mL (≈ 2.04 µM), 0.063 µg/mL (≈ 0.129 µM) and 4 µg/mL (≈ 8.17 µM).
In the case of `COc1cccc(-c2cc(CNCC[C@H]3CN(c4ccc5c(n4)NC(=O)CO5)C(=O)O3)ccn2)n1` [Example 87, 6-((S)-5-{2-[(6′-methoxy-[2,2]bipyridinyl-4-ylmethyl)-amino]-ethyl}-2-oxo-oxazolidin-3-yl)-4H-pyrido[3,2-b][1,4]oxazin-3-one], the MIC in test [1] is 0.25 µg/mL (≈ 0.525 µM); in test [2], 0.063 µg/mL (≈ 0.132 µM); in test [3] it was 0.125 µg/mL (≈ 0.262 µM); in test [4], ≤ 0.016 µg/mL; in test [5], 2 µg/mL (≈ 4.2 µM).
For `COc1cnnc(-c2cccc(CNCCc3cn(-c4ccc5c(n4)NC(=O)CO5)c(=O)o3)c2)c1` [Example 83, 6-(5-{2-[3-(5-methoxy-pyridazin-3-yl)-benzylamino]-ethyl}-2-oxo-oxazol-3-yl)-4H-pyrido[3,2-b][1,4]oxazin-3-one] the same measures were 0.063 µg/mL (≈ 0.133 µM), 0.063 µg/mL (≈ 0.133 µM), 0.063 µg/mL (≈ 0.133 µM), ≤ 0.016 µg/mL and 2 µg/mL (≈ 4.22 µM).
As to `COc1cncc(-c2cccc(CNCC[C@@H]3CN(c4ccc5c(c4)NC(=O)CS5)C(=O)O3)c2)c1` [Example 13, 6-((R)-5-{2-[3-(5-methoxy-pyridin-3-yl)-benzylamino]-ethyl}-2-oxo-oxazolidin-3-yl)-4H-benzo[1,4]thiazin-3-one], the MIC in test [1] was 0.125 µg/mL (≈ 0.255 µM); in test [2], 0.063 µg/mL (≈ 0.128 µM); in test [3] it was 0.063 µg/mL (≈ 0.128 µM); in test [4], ≤ 0.016 µg/mL; in test [5] it was 1 µg/mL (≈ 2.04 µM).
As for `COc1cccc(-c2cc(CNCC[C@H]3CN(c4ccc5c(n4)NC(=O)CO5)C(=O)O3)cnn2)c1` [Example 105, 6-[(S)-5-(2-{[6-(3-methoxy-phenyl)-pyridazin-4-ylmethyl]-amino}-ethyl)-2-oxo-oxazolidin-3-yl]-4H-pyrido[3,2-b][1,4]oxazin-3-one], the MIC in test [1] is 4 µg/mL (≈ 8.39 µM); in test [2], 8 µg/mL (≈ 16.8 µM); in test [3], 4 µg/mL (≈ 8.39 µM); in test [4], 0.25 µg/mL (≈ 0.525 µM); in test [5], > 8 µg/mL.
On to `COc1ccc(-c2cccc(CNCC[C@@H]3CN(c4ccc5c(c4)NC(=O)CS5)C(=O)O3)c2)cn1` [Example 16, 6-((R)-5-{2-[3-(6-methoxy-pyridin-3-yl)-benzylamino]-ethyl}-2-oxo-oxazolidin-3-yl)-4H-benzo[1,4]thiazin-3-one], for which the MIC in test [1] came to 1 µg/mL (≈ 2.04 µM); in test [2], 0.5 µg/mL (≈ 1.02 µM); in test [3], 0.5 µg/mL (≈ 1.02 µM); in test [4], 0.063 µg/mL (≈ 0.128 µM); in test [5] it was 2 µg/mL (≈ 4.08 µM).
For `COc1ccc(C#N)c(-c2cccc(CNCC[C@@H]3CN(c4ccc5c(c4)NC(=O)CS5)C(=O)O3)c2)c1` [Example 8, 5-methoxy-3′-({2-[(R)-2-oxo-3-(3-oxo-3,4-dihydro-2H-benzo[1,4]thiazin-6-yl)-oxazolidin-5-yl]-ethylamino}-methyl)-biphenyl-2-carbonitrile], the MIC in test [1] is 0.25 µg/mL (≈ 0.486 µM); in test [2], 0.063 µg/mL (≈ 0.122 µM); in test [3], 0.063 µg/mL (≈ 0.122 µM); in test [4] it was ≤ 0.016 µg/mL; in test [5], 1 µg/mL (≈ 1.94 µM).
Take `N#Cc1cncc(-c2cccc(CNCC[C@@H]3CN(c4ccc5c(c4)NC(=O)CS5)C(=O)O3)c2)c1` [Example 17, 5-[3-({2-[(R)-2-oxo-3-(3-oxo-3,4-dihydro-2H-benzo[1,4]thiazin-6-yl)-oxazolidin-5-yl]-ethylamino}-methyl)-phenyl]-nicotinonitrile]: the MIC was 0.125 µg/mL (≈ 0.257 µM) in test [1]; 0.125 µg/mL (≈ 0.257 µM) in test [2]; 0.063 µg/mL (≈ 0.13 µM) in test [3]; ≤ 0.016 µg/mL in test [4]; 1 µg/mL (≈ 2.06 µM) in test [5].
On to `COc1cccc(-c2cncc(CNCC[C@@H]3CN(c4ccc5c(c4)NC(=O)CS5)C(=O)O3)c2)c1` [Example 72, 6-[(R)-5-(2-{[5-(3-methoxy-phenyl)-pyridin-3-ylmethyl]-amino}-ethyl)-2-oxo-oxazolidin-3-yl]-4H-benzo[1,4]thiazin-3-one], for which the MIC amounted to 1 µg/mL (≈ 2.04 µM) in test [1]; 1 µg/mL (≈ 2.04 µM) in test [2]; 0.5 µg/mL (≈ 1.02 µM) in test [3]; 0.063 µg/mL (≈ 0.128 µM) in test [4]; 4 µg/mL (≈ 8.15 µM) in test [5].
In the case of `COc1cnnc(-c2cncc(CNCC[C@H]3CN(c4ccc5c(n4)NC(=O)CO5)C(=O)O3)c2)c1` [Example 110, (S)-6-(5-(2-(((5-(5-methoxypyridazin-3-yl)pyridin-3-yl)methyl)amino)ethyl)-2-oxooxazolidin-3-yl)-2H-pyrido[3,2-b][1,4]oxazin-3(4H)-one], the MIC in test [1] was 2 µg/mL (≈ 4.19 µM); in test [2], 4 µg/mL (≈ 8.38 µM); in test [3] it was 4 µg/mL (≈ 8.38 µM); in test [4], 0.125 µg/mL (≈ 0.262 µM); in test [5], > 8 µg/mL.

Source of the values: patent US9527867B2, “Antibacterial biaromatic derivatives” (Actelion Pharmaceuticals Ltd., priority 2013, dated 2016).
